Values after ≈ are worked out from the molar mass of the structure shown.
Conditions: buffer; pH 7.4; 200.0 µM

Going from COc1ccc(-c2cc3cc(OC)c(OC)cc3c(C)n2)cc1C to CCOc1ncccc1C(=O)OCC(=O)c1ccc(OC)c(OC)c1, the solubility kinetic rises from under 0.7 µg/mL to over 51.8 µg/mL.

Compared with CCOCCCn1cnc2c3cc(F)ccc3n(C)c2c1=O, CCCn1c(Oc2ccccc2)nc2c1c(=O)n(C)c(=O)n2C is 4.3-fold higher in solubility kinetic: 10.4 µg/mL (≈ 34.3 µM) for the first, 45 µg/mL (≈ 143 µM) for the second.

COc1ccc(/C=C2\N=C3CCCN3C2=O)cc1 and NC1=NC(=O)/C(=C/c2ccc(OCC(=O)O)cc2)S1 cannot be ordered by solubility kinetic: over 36.3 µg/mL for the first, over 41.7 µg/mL for the second.

First: CSc1ccccc1NC(=O)C1CC(c2ccccc2Cl)=NO1 (centres undefined)
Second: CC(CNC(=O)c1ccccc1Cl)c1ccccc1 (centres undefined)
The solubility kinetic of the first is 46-fold lower: 0.8 µg/mL (≈ 2.31 µM) for the first, 36.6 µg/mL (≈ 134 µM) for the second.

Compared with CCc1ccc2[nH]c(C(=O)Nc3ccc(F)cc3Br)cc2c1, Cc1ccc2[nH]c(C(=O)N3CCN(c4cccc(Cl)c4)CC3)cc2c1 is lower in solubility kinetic: 0.9 µg/mL (≈ 2.49 µM) for the first, under 0.3 µg/mL for the second.

Going from CC(C)(C)c1csc(NC(=O)CSC2=NCCS2)n1 to O=C(NC1=NCCS1)c1cccc(OC(F)F)c1, the solubility kinetic rises from 10.6 µg/mL (≈ 33.6 µM) to 23.9 µg/mL (≈ 87.8 µM) (2.3-fold).

Going from CC(=O)c1ccc(S(=O)(=O)Nc2ccc(Cl)c(S(=O)(=O)N3CCCC3)c2)cc1 to CC(=O)c1ccc(S(=O)(=O)N2CCCCC2C(=O)O)cc1 (centres undefined), the solubility kinetic falls from over 66.4 µg/mL to 45.9 µg/mL (≈ 147 µM).

COc1ccccc1C(=O)N/C(=C\c1ccccc1)C(=O)NC(C)C(=O)O (centres undefined) and CC(NC(=O)c1cc2ccccc2o1)c1ccccc1 (centres undefined) are within 1.5-fold of each other in solubility kinetic: 52.2 µg/mL (≈ 142 µM) for the first, 37.6 µg/mL (≈ 142 µM) for the second.

First: COc1cc([N+](=O)[O-])ccc1Nc1nc(C)cc(C)n1.Cl
Second: Cc1cccc(Nc2nc(N)c([N+](=O)[O-])c(NCCO)n2)c1
The solubility kinetic of the first is 40-fold lower: 0.5 µg/mL for the first, 19.8 µg/mL (≈ 65.1 µM) for the second.

First: COc1ccc(S(=O)(=O)Nc2ccncc2)c(C)c1C
Second: Cc1ccc(S(=O)(=O)NCCc2ccncc2)cc1C
The solubility kinetic of the first is lower: 4.6 µg/mL (≈ 15.7 µM) for the first, over 43.6 µg/mL for the second.

Going from Cc1cnc(C(=O)OCc2nc3ccsc3c(=O)[nH]2)cn1 to Cc1nc2ccc(NC(=O)c3cc(Cl)ccn3)cc2s1, the solubility kinetic falls from 45.3 µg/mL (≈ 150 µM) to 4.9 µg/mL (≈ 16.1 µM) (9.2-fold).

Compared with Cc1ccc2nc(SC(C)C(=O)NC3CCCC3)[nH]c2c1 (centres undefined), Cc1ccccc1CC(=O)NC1CCCCCC1 is lower in solubility kinetic: over 45.5 µg/mL for the first, 11.1 µg/mL (≈ 45.2 µM) for the second.

First: CCOC(CNc1ncnc2sc(-c3ccccc3)cc12)OCC
Second: CCc1sc(-c2ccccc2)nc1C(=O)OC
The solubility kinetic of the first is higher: 18.6 µg/mL (≈ 54.2 µM) for the first, under 0.5 µg/mL for the second.

CC(=O)Cc1nsc(NC(=O)c2ccc(Cl)cc2Cl)n1 and CC(=O)/C(C#N)=C1\NC(=O)C(Cc2ccc(C)c(Cl)c2)S1 (centres undefined) cannot be ordered by solubility kinetic: over 49.5 µg/mL for the first, over 48.1 µg/mL for the second.

Going from Cn1c(Nc2ccccc2)cc(=O)n(C)c1=O to O=C(Nc1ccccc1)C(=O)c1c[nH]c2ccccc12, the solubility kinetic falls from over 34.7 µg/mL to 0.8 µg/mL (≈ 3.03 µM).

Compared with O=S(=O)(Oc1ccccc1)c1cccnc1, O=S(=O)(NCCc1csc(-c2ccccc2)n1)c1cccnc1 is higher in solubility kinetic: 29.4 µg/mL (≈ 125 µM) for the first, over 51.8 µg/mL for the second.

Compared with Cc1cc(C(=O)Nc2ccncc2)c(C)o1, Cc1cc(C)cc(C(=O)Nc2ccc(N3CCCC3)cc2)c1 is lower in solubility kinetic: over 32.4 µg/mL for the first, 0.7 µg/mL (≈ 2.38 µM) for the second.

First: CCN(CC)S(=O)(=O)c1ccc(-c2csc(C)n2)s1
Second: Cc1ccc(S(=O)(=O)CCc2nc3ccccc3[nH]2)cc1C
The solubility kinetic of the first is lower: 13.6 µg/mL (≈ 43 µM) for the first, over 47.2 µg/mL for the second.

COc1ccc(C(=O)NCC(=O)OCC(=O)NCc2ccco2)cc1 and Cc1ccc(C(=O)NCC(=O)OCC(=O)c2ccccc2)s1 cannot be ordered by solubility kinetic: over 52 µg/mL for the first, over 47.6 µg/mL for the second.

Going from COc1ccccc1-c1cc(C(=O)N2CCCc3ccccc32)no1 to COc1ccccc1NC(=O)CC1SC(=N)N(c2ccccc2)C1=O (centres undefined), the solubility kinetic rises from 3.1 µg/mL (≈ 9.27 µM) to 5.3 µg/mL (≈ 14.9 µM) (1.7-fold).

Compared with O=C(Nc1cccc(S(=O)(=O)NCc2ccco2)c1)c1ccc(Cl)cc1, CC(NS(=O)(=O)c1ccc(Cl)c(Cl)c1)C(=O)Nc1cccnc1 (centres undefined) is higher in solubility kinetic: 3 µg/mL (≈ 7.68 µM) for the first, over 56.1 µg/mL for the second.

First: COc1cc(OC)cc(C2=NC3(CCC(C)CC3)NC2=S)c1 (centres undefined)
Second: CN1CCC2(CC1)N=C(c1ccc(F)cc1)C(=S)N2
The solubility kinetic of the first is 18-fold lower: 2.2 µg/mL (≈ 6.91 µM) for the first, 39.8 µg/mL (≈ 143 µM) for the second.

CCOCc1[nH]c(=S)[nH]c(=O)c1Cc1ccc(OC(C)C)cc1 and CCC(C)NC(=S)Nc1ccc(F)cc1 (centres undefined) cannot be ordered by solubility kinetic: over 50.2 µg/mL for the first, over 33.9 µg/mL for the second.

First: CCOC(=O)CC(=O)c1[nH]c(C)c(C(=O)OCC)c1C
Second: CCOP(=O)(OCC)C(NC(=O)NC)C(N)=O (centres undefined)
The solubility kinetic of the first is 2.1-fold lower: 14.3 µg/mL (≈ 50.8 µM) for the first, 30.4 µg/mL (≈ 114 µM) for the second.

CC(C)CCNc1nc(N)c([N+](=O)[O-])c(NCCO)n1 and COC(=O)Cn1c(C)nc([N+](=O)[O-])c1Br are within 1.5-fold of each other in solubility kinetic: 42.3 µg/mL (≈ 149 µM) for the first, 31.9 µg/mL (≈ 115 µM) for the second.

Going from Nc1ccc(CCNc2ncnc3c2ncn3[C@@H]2O[C@H](CO)[C@@H](O)[C@H]2O)cc1 to OCCNc1c2ccccc2nc2ccccc12, the solubility kinetic falls from over 58 µg/mL to 33.7 µg/mL (≈ 141 µM).

Going from Nc1ncc(-c2ccccc2)c(-c2ccc(OCc3ccccc3)cc2O)n1 to CCC1(Cc2ccccc2)NC(=O)c2ccccc2O1 (centres undefined), the solubility kinetic rises from 0.4 µg/mL (≈ 1.08 µM) to 36.5 µg/mL (≈ 137 µM) (91-fold).

CC1CCCN(S(=O)(=O)c2cnc[nH]2)C1 (centres undefined) and CC(=O)c1cccc(N2C(=O)CC(N3CCN(S(=O)(=O)c4ccccc4F)CC3)C2=O)c1 (centres undefined) cannot be ordered by solubility kinetic: over 34.4 µg/mL for the first, over 68.9 µg/mL for the second.

Compared with CC(C)(C)c1ccc(/C=C(\C#N)C(=O)NC2CC2)cc1, Cc1ccc(C(=O)N2CCC(C(=O)c3c(C)cc(C)cc3C)CC2)cc1 is 6.5-fold higher in solubility kinetic: 3.7 µg/mL (≈ 13.8 µM) for the first, 24.1 µg/mL (≈ 69 µM) for the second.

Compared with C=CCNC(=O)CN1N=C(c2ccc(C)cc2)CCC1=O, Cc1ccc(NC(=O)Nc2cc(C(F)(F)F)c[nH]c2=O)cc1 is lower in solubility kinetic: over 42.8 µg/mL for the first, 0.4 µg/mL (≈ 1.29 µM) for the second.

O=c1cc(C(F)(F)F)nc(SCc2cccnc2)[nH]1 and C/C(=N\NC(=O)c1ccccc1C)c1cccnc1 cannot be ordered by solubility kinetic: over 43.1 µg/mL for the first, over 38 µg/mL for the second.

Compared with O=C(Cc1ccccc1F)NC1CCSc2ccccc21 (centres undefined), COc1ccc(OC)c(NC(=O)NC2CCCc3ccccc32)c1 (centres undefined) is 12-fold lower in solubility kinetic: 8.1 µg/mL (≈ 26.9 µM) for the first, 0.7 µg/mL (≈ 2.14 µM) for the second.

O=C(O)C1C2C=CC(C2)C1C(=O)Nc1ccccc1Br (centres undefined) and O=C(CC1C(=O)NCCN1C(=O)Nc1ccccc1)Nc1ccc(F)cc1 (centres undefined) cannot be ordered by solubility kinetic: over 50.4 µg/mL for the first, 52.2 µg/mL (≈ 141 µM) for the second.

O=C(O)c1cccc2c1/C(=N/O)c1ccccc1-2 and NC(=O)C1CCN(C(=O)c2cc(-c3ccc(Cl)cc3)nc3ccccc23)CC1 cannot be ordered by solubility kinetic: over 35.9 µg/mL for the first, over 59.1 µg/mL for the second.

Going from CCc1nc(Nc2cccc(OC)c2)c2oc3ccccc3c2n1.Cl to COc1cccc(CN2CCN(Cc3cccc(F)c3)CC2)c1.O=C(O)C(=O)O, the solubility kinetic rises from 0.5 µg/mL to 46.5 µg/mL (93-fold).

Going from O=C(Oc1ccc(Cl)c(Cl)c1)C1=CC=CN2CCS(=O)(=O)N=C12 to O=C(c1ccc2nc[nH]c2c1)N1CCN(c2cccc(Cl)c2)CC1, the solubility kinetic rises from 19.7 µg/mL (≈ 52.8 µM) to 42.7 µg/mL (≈ 125 µM) (2.2-fold).

O=C(CCC(=O)Nc1cccc(C(F)(F)F)c1)NCC1CCCO1 (centres undefined) and CC(OC(=O)C1CC2CCCC(C1)C2=O)C(=O)Nc1cccc([N+](=O)[O-])c1 (centres undefined) cannot be ordered by solubility kinetic: over 51.6 µg/mL for the first, over 56.2 µg/mL for the second.

CC1(C)CC(=O)C(C(O)c2cccc([N+](=O)[O-])c2)C(C)(C)N1 (centres undefined) and CN1CCC(N(C)C(=O)Cc2ccccc2[N+](=O)[O-])CC1 cannot be ordered by solubility kinetic: 44.9 µg/mL (≈ 147 µM) for the first, over 43.7 µg/mL for the second.

Compared with Cc1cc(OC(F)F)ccc1NC(=S)NC1CCCC1, COc1ccc(NC(=O)CN2CCCCCC2)cc1OC is lower in solubility kinetic: over 45.1 µg/mL for the first, 32.2 µg/mL (≈ 110 µM) for the second.

Going from CN(C)c1ccc(C(=O)NCc2ccc3c(c2)CCO3)cc1 to Cc1ccc(C(=O)NC(C)c2ccc(-n3ccnc3)cc2)cc1 (centres undefined), the solubility kinetic rises from 34.3 µg/mL (≈ 116 µM) to over 45.8 µg/mL.

C#CC1(OC(=O)c2ccccc2)CC(C)N(C)CC1C.Cl (centres undefined) and CC(C)c1ccccc1OCCCN1CCCC1.O=C(O)C(=O)O cannot be ordered by solubility kinetic: over 46.2 µg/mL for the first, 47 µg/mL for the second.

First: CC(=O)Nc1ccc(NC(=O)COC(=O)c2ccc([N+](=O)[O-])o2)cc1
Second: O=C(NCCc1csc(-c2ccccc2)n1)c1ccco1
The solubility kinetic of the first is higher: over 52.1 µg/mL for the first, 42.4 µg/mL (≈ 142 µM) for the second.
